Structures can show the parent of a compound that is named as a salt.
What was measured:
SHP2 [1] = target: T1, SHP2 (Homo sapiens (Human), UniProt Q06124); assay: Phosphatase assay (single dose inhibition), DiFMUP substrate; type: biochemical; conditions: compound at 0.1 μM (100 nM); SHP2 0.5 nM activated with dPEG8 peptide; DiFMUP 12 μM; relative to DMSO control
Procedure: DMSO [0.5% (v/v)] or compounds (100 nM) were added to the mixture and incubated for 30 min at room temperature. […] The experiment is carried out in triplicate. The value for the control sample (DMSO) was set to 100%, and the values for the compound-treated samples were expressed as activity relative to the control sample.

SHP2 [2] = target: T1, SHP2; assay: Phosphatase assay (IC50), DiFMUP substrate; type: biochemical; conditions: SHP2 0.5 nM activated with dPEG8 peptide; DiFMUP 12 μM; compounds 0.3 nM to 1 μM
Procedure: DMSO [0.5% (v/v)] or compounds (concentrations ranging from 0.3 nM to 1 μM) were added to the mixture and incubated for 30 min at room temperature.

KYSE-520 cells = assay: Cell proliferation assay (MTS/PMS); type: cell-based; conditions: Homo sapiens, 192 h, 1500 cells/well, RPMI-1640 3% FBS, read at day 8
Procedure: For drug treatment, compounds of the invention at various concentrations were added 24 hours after cell plating. At day 8, 50 μL MTS/PMS reagents (Promega/Sigma) were added, and the absorbance value was determined according to the supplier's instruction (Promega).

T1 sequence (Q06124 whole entry): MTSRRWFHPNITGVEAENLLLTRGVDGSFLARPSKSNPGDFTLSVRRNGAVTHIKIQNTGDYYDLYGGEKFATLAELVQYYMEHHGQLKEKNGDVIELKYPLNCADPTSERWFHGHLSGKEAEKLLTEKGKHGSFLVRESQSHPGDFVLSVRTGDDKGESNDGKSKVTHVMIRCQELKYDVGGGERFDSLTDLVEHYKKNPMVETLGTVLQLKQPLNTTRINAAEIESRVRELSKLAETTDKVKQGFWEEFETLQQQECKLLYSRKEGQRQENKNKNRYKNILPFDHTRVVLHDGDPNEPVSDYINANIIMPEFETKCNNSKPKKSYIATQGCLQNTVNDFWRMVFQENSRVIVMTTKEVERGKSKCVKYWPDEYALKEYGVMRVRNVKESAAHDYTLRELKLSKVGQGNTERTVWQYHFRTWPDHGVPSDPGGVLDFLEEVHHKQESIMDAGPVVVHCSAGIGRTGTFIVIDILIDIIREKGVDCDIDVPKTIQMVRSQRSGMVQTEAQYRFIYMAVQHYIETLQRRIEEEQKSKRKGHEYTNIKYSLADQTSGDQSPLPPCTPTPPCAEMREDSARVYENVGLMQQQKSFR

Row | SMILES | inhibition at 0.1 µM (SHP2 [1]) [%] | IC50 (SHP2 [2]) [µM] | IC50 (KYSE-520 cells) [µM]
1 | CN1C(=O)C(F)(C(F)(F)F)c2c(Sc3ncc(N4CCC5(CC4)COC[C@H]5N)nc3N)cccc21 (stereo partly drawn) [Example 58, 4-((3-amino-5-((S)-4-amino-2-oxa-8-azaspiro[4.5]decan-8-yl)pyrazin-2-yl)thio)-3-fluoro-1-methyl-3-(trifluoromethyl)indolin-2-one] | 61 |  | 
2 | Cc1ccc(C(=O)C(=O)Nc2cccc(Sc3ncc(N4CCC(C)(N)CC4)nc3N)c2Cl)cc1 [Example 31, N-(3-((3-amino-5-(4-amino-4-methylpiperidin-1-yl)pyrazin-2-yl)thio)-2-chlorophenyl)-2-oxo-2-(p-tolyl)acetamide] | 53 |  | 
3 | Nc1nc(N2CCC3(CC2)COC[C@H]3N)cnc1Sc1cccc2[nH]ccc12 [Example 42, (S)-8-(5-((1H-indol-4-yl)thio)-6-aminopyrazin-2-yl)-2-oxa-8-azaspiro[4.5]decan-4-amine] | 58 |  | 
4 | Nc1nc(N2CCC3(CC2)COC[C@H]3N)cnc1Sc1cccc2[nH]cc(F)c12 [Example 40, (S)-8-(6-amino-5-((3-fluoro-1H-indol-4-yl)thio)pyrazin-2-yl)-2-oxa-8-azaspiro[4.5]decan-4-amine] | 71 | 0.0406 | 
5 | Nc1nc(N2CCC3(CC2)C(=O)N2CCCC2C3N)cnc1Sc1ccnc(N)c1Cl (centres unmarked) [Example 75, 1′-amino-1-(6-amino-5-((2-amino-3-chloropyridin-4-yl)thio)pyrazin-2-yl)tetrahydrospiro[piperidine-4,2′-pyrrolizin]-3′(1′H)-one] | 35 |  | 
6 | CN(C)C(=O)C(=O)Nc1cccc(Sc2ncc(N3CCC(C)(N)CC3)nc2N)c1Cl [Example 29, N^1-(3-((3-amino-5-(4-amino-4-methylpiperidin-1-yl)pyrazin-2-yl)thio)-2-chlorophenyl)-N^2,N^2-dimethyloxalamide] | 47 |  | 
7 | CN(C)C(=O)C(=O)c1ccc(C(=O)Nc2nccc(Sc3ncc(N4CCC(C)(CN)CC4)nc3N)c2Cl)cc1 [Example 35, N-(4-((3-amino-5-(4-(aminomethyl)-4-methylpiperidin-1-yl)pyrazin-2-yl)thio)-3-chloropyridin-2-yl)-4-(2-(dimethylamino)-2-oxoacetyl)benzamide] | 30 |  | 
8 | CN(C)C(=O)C(=O)c1ccc(C(=O)Nc2nccc(Sc3ncc(N4CCC(C)(N)CC4)nc3N)c2Cl)cc1 [Example 34, N-(4-((3-amino-5-(4-amino-4-methylpiperidin-1-yl)pyrazin-2-yl)thio)-3-chloropyridin-2-yl)-4-(2-(dimethylamino)-2-oxoacetyl)benzamide] | 37 |  | 
9 | CC(=O)N1CC(F)(F)c2c(Sc3ncc(N4CCC(C)(CNC(=O)OC(C)(C)C)CC4)nc3N)cccc21 [Example 13, tert-butyl ((1-(5-((1-acetyl-3,3-difluoroindolin-4-yl)thio)-6-aminopyrazin-2-yl)-4-methylpiperidin-4-yl)methyl)carbamate] |  |  | 20.6
10 | Nc1nc(N2CCC3(CC2)CC2CC2C3N)cnc1Sc1ccnc(N)c1Cl (centres unmarked) [Example 74, 1′-(6-amino-5-((2-amino-3-chloropyridin-4-yl)thio)pyrazin-2-yl)spiro[bicyclo[3.1.0]hexane-3,4′-piperidin]-2-amine] | 75 | 0.0083 | 3.38
11 | CC(=O)n1ccc2c(Sc3ncc(N4CCC5(CC4)COC[C@H]5N)nc3N)cccc21 [Example 43, (S)-1-(4-((3-amino-5-(4-amino-2-oxa-8-azaspiro[4.5]decan-8-yl)pyrazin-2-yl)thio)-1H-indol-1-yl)ethanone] | 43 |  | 
12 | Nc1nc(N2CCC3(CC2)COC[C@H]3N)cnc1Sc1cccc2c1C(F)(F)C(=O)N2 [Example 8, (S)-4-((3-amino-5-(4-amino-2-oxa-8-azaspiro[4.5]decan-8-yl)pyrazin-2-yl)thio)-3,3-difluoroindolin-2-one] | 76 | 0.0214 | 26.4
13 | CC(=O)N1CCc2c(Sc3ncc(N4CCC5(CC4)COC[C@H]5N)nc3N)cccc21 [Example 72, (S)-1-(4-((3-amino-5-(4-amino-2-oxa-8-azaspiro[4.5]decan-8-yl)pyrazin-2-yl)thio)indolin-1-yl)ethanone] | 31 |  | 
14 | CN(C)C(=O)C(=O)Nc1cccc(Sc2ncc(N3CCC(C)(CN)CC3)nc2N)c1Cl [Example 20, N^1-(3-((3-amino-5-(4-(aminomethyl)-4-methylpiperidin-1-yl)pyrazin-2-yl)thio)-2-chlorophenyl)-N^2,N^2-dimethyloxalamide] | 57 |  | 
15 | CN(C)C(=O)C(=O)Nc1cccc(Sc2ncc(N3CCC4(CC3)COC[C@H]4N)nc2N)c1Cl [Example 1, (S)-N1-(3-((3-amino-5-(4-amino-2-oxa-8-azaspiro[4.5]decan-8-yl)pyrazin-2-yl)thio)-2-chlorophenyl)-N2,N2-dimethyloxalamide hydrochloride] |  |  | 15.9
16 | C=CC(=O)Nc1cccc(Sc2ncc(N3CCC(C)(NC(=O)OC(C)(C)C)CC3)nc2N)c1Cl [Example 32, tert-butyl (1-(5-((3-acrylamido-2-chlorophenyl)thio)-6-aminopyrazin-2-yl)-4-methylpiperidin-4-yl)carbamate] | 49 |  | 
17 | CN(C)C(=O)C(=O)c1ccc(C(=O)Nc2cccc(Sc3ncc(N4CCC(C)(N)CC4)nc3N)c2Cl)cc1 [Example 3, N-(3-((3-amino-5-(4-amino-4-methylpiperidin-1-yl)pyrazin-2-yl)thio)-2-chlorophenyl)-4-(2-(dimethylamino)-2-oxoacetyl)benzamide] | 60 |  | 
18 | CN1C(=O)C(F)(F)c2c(Sc3ncc(N4CCC5(CC4)COC[C@H]5N[S@+]([O-])C(C)(C)C)nc3N)cccc21 [Example 11, (R)-N-((S)-8-(6-amino-5-((3,3-difluoro-1-methyl-2-oxoindolin-4-yl)thio)pyrazin-2-yl)-2-oxa-8-azaspiro[4.5]decan-4-yl)-2-methylpropane-2-sulfinamide] |  |  | 12
19 | Nc1nc(N2CCC3(CC2)COC[C@H]3N)cnc1Sc1ccnc2c1C(F)(F)C(=O)N2 [Example 10, (S)-4-((3-amino-5-(4-amino-2-oxa-8-azaspiro[4.5]decan-8-yl)pyrazin-2-yl)thio)-3,3-difluoro-1H-pyrrolo[2,3-b]pyridin-2(3H)-one] | 81 | 0.03 | 
20 | Nc1nc(N2CCC3(CC2)COC[C@H]3N)cnc1Sc1ccnc2[nH]ccc12 [Example 38, (S)-8-(5-((1H-pyrrolo[2,3-b]pyridin-4-yl)thio)-6-aminopyrazin-2-yl)-2-oxa-8-azaspiro[4.5]decan-4-amine] | 30 |  | 
